This note sets out measurements from paper PMC8765437, “GSK3640254 Is a Novel HIV-1 Maturation Inhibitor with an Optimized Virology Profile” (Antimicrobial Agents and Chemotherapy, 2022).

pEC50: −log10 of the molar value. Bounds are passed on as bounds.

One assay relates to HIV-1 M tropic strains. The assay is described as follows: M-tropic laboratory strains, extracellular p24 antigen in PM1 cells. Type of assay: cell-based. How it is done: (§1) Virus yields were measured in dose-response experiments by either luciferase activity in human T-cells (CEM-NKR-CCR5-Luc), extracellular reverse transcriptase activity in MT-2 cells (T-tropic viruses), or extracellular p24 antigen in PM1 cells (M-tropic viruses).
(§2) Multiple-cycle assays using recombinant viruses or clinical isolates were used to assess MI antiviral activity as described previously ([10]). pNLRepRlucP373S (the P373S change is in the Gag gene and converts an outlier polymorphism in the NL4-3 gene to the prevalent amino acid in the population) plasmids containing SDMs in Gag or gag/pr regions from clinical isolates were transfected into HEK 293T cells, and the supernatant containing recombinant virus was harvested after 4 to 5 days. Virus was used to infect MT-2 cells in the presence of a 3-fold serially diluted compound at a final dimethyl sulfoxide (DMSO) concentration of 1%. The inocula of the reporter viruses were determined based on the luciferase activity detected on day 4 postinfection. The MOI (ratio of infectious virions to target cells) of reporter-free laboratory strains and clinical isolates was 0.005, as derived from a tissue culture infectious dose study. Clinical isolates or reporter-free viruses were examined in the reporter CEM-NKR-CCR5-Luc cells or PBMCs at MOIs ranging from 0.005 to 0.01. Each infection started with a drug-free preincubation of the cell-virus mixtures, performed at 37°C and 5% CO2 for either 1 h at 2 times the final cell density (reporter viruses) or 1 h (reporter-free laboratory strains) or 3 h (clinical isolates) using cell pellets in 0.5 mL of medium. […] Virus growth was determined on days 4 to 5 postinfection for reporter variants or days 5 to 11 for the other viruses. The reporter viruses were detected by a luciferase assay according to manufacturer protocols (Brite-Glo luciferase kit [Promega] for CEM-NKR-CCR5-Luc cells and Dual-Luciferase Reporter 1000 assay system [Promega] for the other cells), and luminescence was detected on a Wallac Trilux. The growth of clinical isolates in PBMCs was quantitated by reverse transcriptase activity in a 96-well scintillation proximity assay (SPA). […] Luminescence was detected on a Wallac Trilux programmed for tritium counting with SPA beads in opaque plates. The growth of the reporter-free laboratory M-tropic strains and clinical isolates was monitored by a p24 enzyme-linked immunosorbent assay (ELISA; PerkinElmer Life Sciences, Waltham, MA) performed on culture supernatants.
(§3) Maximal percent inhibition values were calculated as MPI = 100 – (mean signals at the 2 highest concentrations of compound/mean signal of 2 no-drug control wells) × 100.

The subject of another assay is HIV-2 strains. The assay is described as follows: HIV-2 strains, reverse transcriptase activity in MT-2 cells. In kind it is cell-based. How it is done:
as §1, §2, §3

The subject of assay [1] is RepRlucNL4-3GagP373S variants. The assay is described as follows: Virus breakthrough in MT-2 cell culture in the presence of compound. In kind it is cell-based, HIV-1. To be noted: for Days to virus breakthrough, Expt 1 / Days to virus breakthrough, Expt 2: drug 80 nM; for samples exhibiting breakthrough: low and high MOIs, 80 nM, over the 46-day experiment. The protocol: The ability of virus to break through and grow in the presence of an inhibitory concentration of a compound in cell culture provides an indication of its resistance barrier. […] Experiments were performed in duplicate at a low or high MOI (0.005 and 0.05) and at a drug concentration of 80 nM with RepRlucP373S WT virus or SDM-containing virus with known Gag polymorphisms (Table 6).
Cultures were incubated at 37°C and 5% CO2 until ∼100% cytopathic effect (CPE) was observed. […] At each passage, 100 μL of culture supernatant was collected and stored at −20°C. When a culture reached 100% CPE, it was terminated, and supernatants were harvested for subsequent virus population sequencing.

The mark [2] stands for this setting: Human immunodeficiency virus 1, PM1, Bal.
[3] abbreviates: Human immunodeficiency virus 1, PM1, JRFL.
[4] abbreviates: Human immunodeficiency virus 2, MT2, HIV-2 287.
Where [5] appears, read: Human immunodeficiency virus 2, MT2, HIV-2 ROD, second value in cell.

For orientation: pEC50 means the negative decadic logarithm of the EC50, by convention in mol/L. Read a high pEC50 as a low EC50. `C=C(C)[C@@H]1CC[C@]2(NCCN3CCS(=O)(=O)CC3)CC[C@]3(C)[C@H](CC[C@@H]4[C@@]5(C)CC=C(C6=CC[C@@](CF)(C(=O)O)CC6)C(C)(C)[C@@H]5CC[C@]43C)[C@@H]12` [GSK’254]: the pEC50 is 8.96 with HIV-1 M tropic strains (setting [2]), 8.92 in the assay with HIV-1 M tropic strains (setting [3]), less than 5.86 with HIV-2 strains (setting [4]) and 8.60 in the assay with HIV-2 strains (setting [5]). The “Days to virus breakthrough, Expt 1” value in assay [1] (High MOI (0.05), V362I) is listed as 11 days; in assay [1] (High MOI (0.05), V370A), more than 46 days; in assay [1] (High MOI (0.05), V370M) it was 21 days; in assay [1] (High MOI (0.05), Wild type), more than 46 days; in assay [1] (Low MOI (0.005), V362I) it was 46 days; in assay [1] (Low MOI (0.005), V370A), more than 46 days. Besides, the “Days to virus breakthrough, Expt 1” value in assay [1] (Low MOI (0.005), V370M) was more than 46 days; in assay [1] (Low MOI (0.005), Wild type), 14 days. Also, the “Days to virus breakthrough, Expt 2” value is reported as 11 days in assay [1] (High MOI (0.05), V362I); more than 46 days in assay [1] (High MOI (0.05), V370A); 11 days in assay [1] (High MOI (0.05), V370M); 18 days in assay [1] (High MOI (0.05), Wild type); more than 46 days in assay [1] (Low MOI (0.005), V362I); 11 days in assay [1] (Low MOI (0.005), V370A). For the same compound, the “Days to virus breakthrough, Expt 2” value in assay [1] (Low MOI (0.005), V370M) is recorded as 18 days; in assay [1] (Low MOI (0.005), Wild type) it was more than 46 days. Moreover, in assay [1], the samples exhibiting breakthrough is recorded as 9 of 16.

Turning to `C=C(C)[C@@H]1CC[C@]2(NCCN3CCS(=O)(=O)CC3)CC[C@]3(C)[C@H](CC[C@@H]4[C@@]5(C)CC=C(c6ccc(C(=O)O)cc6)C(C)(C)[C@@H]5CC[C@]43C)[C@@H]12` [GSK’795, reference compound], the pEC50 in the assay with HIV-1 M tropic strains (setting [2]) is 8.43; in the assay on HIV-1 M tropic strains (setting [3]), 7.89; in the assay with HIV-2 strains (setting [4]), 6.12; in the assay on HIV-2 strains (setting [5]), 7.77. In addition, the “Days to virus breakthrough, Expt 1” value is recorded as 7 days in assay [1] (High MOI (0.05), V362I); 11 days in assay [1] (High MOI (0.05), V370A); 7 days in assay [1] (High MOI (0.05), V370M); 11 days in assay [1] (High MOI (0.05), Wild type); 7 days in assay [1] (Low MOI (0.005), V362I); 11 days in assay [1] (Low MOI (0.005), V370A). The “Days to virus breakthrough, Expt 1” value is listed as 7 days in assay [1] (Low MOI (0.005), V370M) and more than 46 days in assay [1] (Low MOI (0.005), Wild type). Further, the “Days to virus breakthrough, Expt 2” value in assay [1] (High MOI (0.05), V362I) came to 7 days; in assay [1] (High MOI (0.05), V370A), 11 days; in assay [1] (High MOI (0.05), V370M), 7 days; in assay [1] (High MOI (0.05), Wild type), 14 days; in assay [1] (Low MOI (0.005), V362I), 11 days; in assay [1] (Low MOI (0.005), V370A), 18 days. The “Days to virus breakthrough, Expt 2” value was found to be 11 days in assay [1] (Low MOI (0.005), V370M) and 14 days in assay [1] (Low MOI (0.005), Wild type). The samples exhibiting breakthrough in assay [1] was 15 of 16.
